Measured values taken from the NIST ThermoML archive (doi:10.1021/je034127q).
± gives the expanded uncertainty stated by the source.

Conditions: Liquid

| Compound | Critical pressure | Critical temperature |
| --- | --- | --- |
| CO [methanol] | 8120 ± 250 kPa | 512.6 ± 2.5 K |
| O=C=O [carbon dioxide] | 7420 ± 250 kPa | 304.5 ± 2.5 K |
| CCCCCC [hexane] | 3020 ± 250 kPa | 507.4 ± 2.5 K |
